Data as given in patent US20190015385A1, “VITAMIN E PHOSPHATE OR ACETATE FOR USE IN THE TREATMENT AND PREVENTION OF BIOFILM INFECTIONS” (priority 2016, published 2019).

Assays:
S. aureus [1] = assay: MIC and MBC, broth microdilution (Example 3); format: cell-based, Staphylococcus aureus
From the text: (§1) This study used clinically relevant strains isolated from patients with prosthetic joint infections at the Microbiology Laboratory of the IRCCS Galeazzi Orthopaedic institute (Italy). In particular, the following were selected: strains of methicillin-resistant Staphylococcus epidermidis, of methicillin-resistant Staphylococcus aureus and of Pseudomonas aeruginosa. These strains were identified beforehand by means of biochemical assays (VITEK® 2 Compact, bioMérieux, Marcy l'Etoile, France) and stored at −80° C. prior to the analysis. Before beginning the study, all strains were screened to assess their ability to produce biofilms, according to the spectrophotometric assay described by Christensen et al. (J Clin Microbiol 1985; 22: 996-1006).
(§2) The bacteriostatic and bactericidal activity of vitamin E acetate and vitamin E phosphate against the above-mentioned bacterial strains was assessed by measuring the minimum inhibitory concentration (MIC) and the minimum bactericidal concentration (MBC). MIC, defined as the lowest concentration capable of inhibiting bacterial growth, was determined using the broth microdilution method according to EUCAST guidelines (http://www.eucast.org/clinical_breakpoints/).
(§3) In short, a suspension in Brain Heart Infusion Broth (BHI; Biomérieux, Marci l'Etoile, France) was prepared for each bacterial strain, with an optical density of 0.5 McFarland (1.5×10^8 CFU/ml). The P. acnes broth was supplemented with 5% defibrinated sheep blood (Liofilchem, Roseto degli Abruzzi, Italy). After a concentration of 10^5 UFC/ml was obtained using appropriate dilutions, each suspension was inoculated in a 96-well microtitre plate containing a two-fold serial dilution of vitamin E acetate (VitE-Ac) and vitamin E phosphate. The controls were performed by inoculating bacterial suspensions in BHI alone. […] After incubation at adequate conditions, MBC was read as the lowest concentration capable of killing 99.9% of the initial inoculum.

S. epidermidis [2] = assay: MIC and MBC, broth microdilution (Example 3); format: cell-based, Staphylococcus epidermidis
From the text: as §1, §2, §3

P. aeruginosa [3] = assay: MIC and MBC, broth microdilution (Example 3); format: cell-based, Pseudomonas aeruginosa
From the text: as §1, §2, §3

P. acnes = assay: MIC and MBC, broth microdilution (Example 3); format: cell-based
Procedure: as §3, with “MIC, defined as the lowest concentration capable of inhibiting bacterial growth, was determined using the broth microdilution method according to EUCAST guidelines (http://www.eucast.org/clinical_breakpoints/). In short,” for “In short,”, “Infusion Broth ([…], France) was” for “Infusion Broth (BHI; Biomérieux, Marci l'Etoile, France) was”, “sheep blood ([…] Abruzzi, Italy).” for “sheep blood (Liofilchem, Roseto degli Abruzzi, Italy).”

S. aureus [4] = assay: Anti-adhesion activity on coated titanium disks, CFU count (Example 3); format: cell-based, Staphylococcus aureus
Procedure: (§4) Sterile disks of sandblasted titanium with a diameter of 25 mm and a thickness of 5 mm (Adler Ortho, Cormano, Italy) were used as the substrate for the formation of biofilms. The disks were coated with sub-inhibitory concentrations of vitamin E acetate (5 mg/cm^2) or vitamin E phosphate (5 mg/cm^2). The concentrations were selected based on the MIC results. Uncoated disks were used as negative controls. The anti-adhesion activity of vitamin E was assessed against a representative strain for each species. An overnight bacteria culture was resuspended in Brain Heart Infusion Broth (BHI; Biomérieux) at a density of 1.0×10^7 CFU/ml for each strain, and 400 microliters of microbial suspension were inoculated on coated and uncoated disks. The test was performed in triplicate for each strain. After 30, 60 and 120 minutes of incubation, the disks were washed twice with a sterile saline solution to eliminate non-adherent bacteria. The disks were then immersed in 5 ml of a 0.1 w/v % dithiothreitol solution (DTT, Sigma-Aldrich, Milan, Italy) and mechanically stirred for 15 minutes at room temperature. Suitable dilutions of the fluids obtained were inoculated on Tryptic Soy Agar (TSA, Merck) and incubated at 37° C. in an aerobic atmosphere for 24 hours for the CFU count.

S. epidermidis [5] = assay: as above; format: cell-based, Staphylococcus epidermidis
Procedure: as §4

P. aeruginosa [6] = assay: as above; format: cell-based, Pseudomonas aeruginosa
Procedure: as §4

S. aureus [7] = assay: Anti-biofilm activity on coated titanium disks, CFU count (Example 3); format: cell-based, Staphylococcus aureus; settings: 48 hours, 5 mg/cm^2 coating
Procedure: Coated and uncoated titanium disks were prepared as described above and utilized as the substrate for the formation of biofilms. Subsequently, an overnight bacteria culture was resuspended in Brain Heart Infusion Broth (BHI; Biomérieux) at a density of 1.5×10^8 CFU/ml for each strain, and 200 microliters of microbial suspension were inoculated in sterile polystyrene plates with 6 wells containing coated and uncoated disks and 4.8 ml of BHI. The plates were incubated at 37° C. in an aerobic atmosphere for 24 and 48 hours. The test was performed in triplicate for each strain.
At the end of the biofilm incubation time, the disks were treated as described above and the detached cells of the biofilm were inoculated on Tryptic Soy Agar and incubated at 37° C. in an aerobic atmosphere for 24 hours for the CFU count.

[8] = test system: S. aureus, S. epidermidis, E. coli, P. aeruginosa and C. albicans (all the strains tested); assay: Antimicrobial activity, MIC by broth microdilution (Example 1); format: cell-based; settings: mean over all strains tested; VitE diluted in hyaluronic acid; read after 24 hours at 37° C.
Procedure: The microbial strains utilized in this study were isolated from clinical samples collected from bone and soft tissue infections. In particular, strains of S. aureus, S. epidermidis, E. coli, P. aeruginosa and C. albicans were utilized. They were identified beforehand by means of biochemical assays and examined to assess their ability to produce biofilms, according to the spectrometric assay described by Christensen et al. (1985). The microorganisms were stored at −80° C. prior to the analysis. Prior to use, the strains were thawed and cultivated in an appropriate culture medium at 37° C. for 24 h. Antimicrobial activity was assessed by determining the minimum inhibitory concentration (MIC). MIC, defined as the lowest concentration of an antimicrobial substance that inhibits the visible growth of a microorganism, was determined using the broth microdilution method, in accordance with the guidelines of the European Committee on Antimicrobial Susceptibility Testing (EUCAST). […] VitE was diluted in hyaluronic acid (HA) at various concentrations, for which the growth checks were performed by inoculating the microbial suspension in BHI+HA. […] The assay was conducted in duplicate and repeated twice.

rats or mice = settings: rat or mouse; cited from earlier work
[9] = 5 mg/cm^2 coating, 30, 60 and 120 minutes
[10] = 5 mg/cm^2 coating, range over 30, 60 and 120 minutes

Cc1c(C)c2c(c(C)c1OP(=O)([O-])[O-])CC[C@@](C)(CCC[C@H](C)CCC[C@H](C)CCCC(C)C)O2.[Na+].[Na+] [Vitamin E phosphate, α-tocopherol phosphate disodium salt]
bactericidal at the concentrations tested (in words) (S. aureus [1]; S. aureus): bactericidal | MIC range (S. aureus [1]; S. aureus strains, 24 hours): 25 to 100 mg/mL | MBC range (S. aureus [1]; S. aureus strains, kills 99.9% of the initial inoculum): 25 to 200 mg/mL | bactericidal at the concentrations tested (in words) (S. epidermidis [2]; S. epidermidis): bactericidal | MIC range (S. epidermidis [2]; S. epidermidis strains, 24 hours): 3.13 to 100 mg/mL | MBC range (S. epidermidis [2]; S. epidermidis strains, kills 99.9% of the initial inoculum): 25 to 100 mg/mL | bactericidal at the concentrations tested (in words) (P. aeruginosa [3]; P. aeruginosa): not against P. aeruginosa | MIC range (P. aeruginosa [3]; P. aeruginosa strains, 24 hours): 100 to 200 mg/mL | MBC range (P. aeruginosa [3]; P. aeruginosa strains, kills 99.9% of the initial inoculum): >200 mg/mL | bactericidal at the concentrations tested (in words) (P. acnes): bactericidal | MIC range (P. acnes; 48 hours, broth with 5% defibrinated sheep blood): 1.56 to 6.25 mg/mL | MBC range (P. acnes; kills 99.9% of the initial inoculum): 31.25 to 50 mg/mL | decrease in adhesion (in words) (S. aureus [4]; [9]): significant decrease | inhibition of adhesion with respect to the control (S. aureus [4]; [10]): 60-78% | decrease in adhesion (in words) (S. epidermidis [5]; [9]): significant decrease | inhibition of adhesion with respect to the control (S. epidermidis [5]; [10]): 84-95% | decrease in adhesion (in words) (P. aeruginosa [6]; [9]): significant decrease for all the strains tested, with the exception of the last time period tested for P. aeruginosa | inhibition of adhesion with respect to the control (P. aeruginosa [6]; [10]): 7-65% | biofilm reduction with respect to the controls (in words) (S. aureus [7]): significantly inhibited

vitamin E
mean MIC value [8]: 2.5% | LD50 (rats or mice): 4000 mg of vitamin E/kg
